Measurements taken from ChEMBL document CHEMBL4804286, “3-amino-4-(4-(4 (dimethylcarbamoyl) phenyl)-1,4-diazepan-1-yl) thieno [2,3-b] pyridine-2-carboxamide for use in cancer therapy and formulations comprising the same” (2020).
Values belong to the molecule of their own block, whether it stands above or below them. The source made the active and inactive calls. The calls are words filed in the database; no cut-off is given here.

Key:
[1] = target: Cyclin-dependent kinase 8/19 (Homo sapiens, UniProt P49336+Q9BWU1); settings: ST-2
Chain of Cyclin-dependent kinase 8/19 (P49336 whole entry, looked up): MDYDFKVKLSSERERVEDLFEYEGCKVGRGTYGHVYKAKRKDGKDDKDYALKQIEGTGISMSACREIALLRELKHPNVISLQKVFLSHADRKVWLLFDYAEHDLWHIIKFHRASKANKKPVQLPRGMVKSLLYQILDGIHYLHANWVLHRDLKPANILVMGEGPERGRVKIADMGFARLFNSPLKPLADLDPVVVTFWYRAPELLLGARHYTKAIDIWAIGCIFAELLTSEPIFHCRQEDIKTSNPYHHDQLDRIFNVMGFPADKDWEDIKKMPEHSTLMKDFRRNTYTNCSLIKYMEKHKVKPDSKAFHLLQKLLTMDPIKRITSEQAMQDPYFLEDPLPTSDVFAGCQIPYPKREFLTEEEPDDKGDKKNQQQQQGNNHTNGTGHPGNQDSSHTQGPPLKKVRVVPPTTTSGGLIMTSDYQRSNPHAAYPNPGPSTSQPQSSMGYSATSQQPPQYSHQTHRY
Chain of Cyclin-dependent kinase 8/19 (Q9BWU1 whole entry, looked up): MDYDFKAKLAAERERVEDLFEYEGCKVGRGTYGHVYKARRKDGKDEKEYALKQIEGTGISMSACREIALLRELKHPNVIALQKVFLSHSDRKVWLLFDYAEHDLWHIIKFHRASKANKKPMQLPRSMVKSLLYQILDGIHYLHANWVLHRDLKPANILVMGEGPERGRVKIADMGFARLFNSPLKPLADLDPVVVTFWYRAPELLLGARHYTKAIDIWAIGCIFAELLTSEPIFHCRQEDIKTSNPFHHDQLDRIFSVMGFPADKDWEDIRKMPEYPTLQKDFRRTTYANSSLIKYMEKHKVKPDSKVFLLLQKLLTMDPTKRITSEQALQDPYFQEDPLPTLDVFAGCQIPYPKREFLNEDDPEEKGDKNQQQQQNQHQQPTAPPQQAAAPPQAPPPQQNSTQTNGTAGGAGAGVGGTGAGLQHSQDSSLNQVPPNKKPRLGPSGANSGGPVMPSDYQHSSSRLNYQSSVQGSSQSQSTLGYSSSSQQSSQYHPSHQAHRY
Description: Inhibition of CDK8/CDK19 in ST2 cells by alkaline phosphatase activity assay

4T1 = assay: Antitumor activity against murine 4T1 cells xenografted in mouse assessed as suppression of tumor volume at 50 mg/kg, po; format: functional, organism-based
CWR22R [2] = assay: Antitumor activity against human 22Rv1 cells expressing AR-V7 xenografted in male nude mouse assessed as suppression of tumor growth at 66 mg/kg, administered twice a day for 20 days; format: functional, organism-based
Myc-CaP [3] = assay: Antiproliferative activity against murine castration-resistant Myc-CaP cells at 1 uM assessed as growth inhibition in presence of 5 uM enzalutamide relative to control; format: functional; settings: Mus musculus
Myc-CaP [4] = assay: Inhibition of colony formation in murine castration-resistant Myc-CaP cells at 1 uM by clonogenic assay; format: functional; settings: Mus musculus
Myc-CaP [5] = assay: Antiproliferative activity against murine castration-resistant Myc-CaP cells at 1 uM assessed as growth inhibition relative to control; format: functional; settings: Mus musculus
CWR22R [6] = assay: Antitumor activity against human 22Rv1 cells expressing AR-V7 xenografted in male nude mouse assessed as suppression of tumor growth at 133 mg/kg, administered once a day for 20 days; format: functional, organism-based
Myc-CaP [7] = assay: Inhibition of colony formation in murine castration-resistant Myc-CaP cells at 1 uM in presence of 5 uM enzalutamide by clonogenic assay relative to control; format: functional; settings: Mus musculus

SMILES: CN1CCN(C(=O)c2ccc3cc(CCNc4ncnc5ccc(C#N)cc45)ccc3c2)CC1 [SENEXIN B]
- Activity (4T1): Active
- Activity (CWR22R [2]): Active
- Activity (Myc-CaP [3]): Active
- inhibition (Myc-CaP [4]): Active
- Activity (Myc-CaP [5]): Active
- Activity (CWR22R [6]): Active
- inhibition (Myc-CaP [7]): Active

SMILES: CN(C)C(=O)Cc1ccc(N2CCCN(c3ccnc4sc(C(N)=O)c(N)c34)CC2)cc1
- EC200 [1]: 6.6 nM

Results, then the molecule that gave them:

- EC200 [1]: 88.1 nM
SMILES: Cc1ccc(N2CCCN(c3ccnc4sc(C(N)=O)c(N)c34)CC2)cc1

- EC200 [1]: 115 nM
SMILES: COc1ccc(N2CCCN(c3ccnc4sc(C(N)=O)c(N)c34)CC2)cc1

- EC200 [1]: 54.2 nM
SMILES: CNC(=O)c1ccc(N2CCCN(c3ccnc4sc(C(N)=O)c(N)c34)CC2)cc1
